The values below are quoted from earlier work in patent publication US20250222024A1, “METHOD AND COMPOSITION FOR TREATING CORONA VIRUS, INFLUENZA, AND ACUTE RESPIRATORY DISTRESS SYNDROME” (ReversPAH LLC, priority 2020, published 2025).

Data set [1] deals with silica-induced lung inflammation and fibrosis. The note with it: by inhibiting T-helper 17 cell (TH 17).
Data set [2] deals with monocrotaline-induced pulmonary hypertension. The note with it: through the bone morphogenetic protein signaling pathway.
Data set [3] deals with carrageenan-induced lung injury. The conditions noted are these: for TNF-alpha levels in the lung / nitrite and nitrate levels (stable NO metabolites) in pleural exudates: 4 hours after carrageenan administration, versus CAR group, n=8 mice; for TNF-alpha levels in the lung: FIG. 10(a); for nitrite and nitrate levels (stable NO metabolites) in pleural exudates: FIG. 10(b).
Data set [4] concerns Sugen/hypoxia-induced PAH. The conditions noted are these: rat.
A further data set has as its system SARS-CoV-2. The note with it: in vitro.

For `O=C(O)[C@H]1O[C@@H](Oc2cc3oc(-c4ccccc4)cc(=O)c3c(O)c2O)[C@H](O)[C@@H](O)[C@@H]1O` [Baicalin], in data set [1], the “silica-induced lung inflammation and fibrosis” value is “alleviate silica-induced lung inflammation and fibrosis”. For the same compound, the monocrotaline-induced pulmonary hypertension entry in data set [2] was “attenuate monocrotaline-induced pulmonary hypertension”.
Turning to `CCN(CC)C(=O)N1CCN(C)CC1` [DEC, Diethylcarbamazine], in data set [3], the “TNF-alpha levels in the lung” value is “significantly reduced the TNF-alpha levels”; the “nitrite and nitrate levels (stable NO metabolites) in pleural exudates” value was “significantly reduced the nitrite and nitrate level”. In addition, in data set [3] (mouse acute lung injury model, DEC pretreatment, FIG. 9), the “neutrophil infiltration into the lung (myeloperoxidase marker)” value was “significantly inhibited neutrophil infiltration”.
In the case of `COc1ccc2c(c1)c(CC(=O)O)c(C)n2C(=O)c1ccc(Cl)cc1` [INDO], in data set [3], the “TNF-alpha levels in the lung” value was “did not reduce the TNF-alpha level”; the “nitrite and nitrate levels (stable NO metabolites) in pleural exudates” value is “significantly reduced the nitrite and nitrate level”.
Regarding `S=C(S)N1CCCC1` [pyrrolidine dithiocarbamate], the “reversal of established angio-obliterative PAH” value in data set [4] is listed as “reverse established angio-obliterative PAH”.
In the case of Ivermectin, the “replication of SARS-CoV-2” value with SARS-CoV-2 is recorded as “inhibits the replication of SARS-CoV-2 in vitro”.
